Test results: patent publication US11952584B2, “Functional peptides having antimicrobial activity against phytopathogenic microorganisms” (TOYOTA JIDOSHA KABUSHIKI KAISHA, priority 2019, dated 2024)
“And” between values parts separate entries of the source, which are not always exact repeats. Equal entries are not always repeated. Where two headings read alike, the source gives them in different places.

Legend:
[1] = test system: Pyricularia oryzae; assay type: cell-based; settings: 25° C., 1 day or 2 days
[2] = test system: Colletotrichum destructivum; assay: Colletotrichum destructivum leaf inoculation test (Chinese cabbage leaf); assay type: in vivo; settings: 25° C., 4 days, lesions by visual inspection
Source text: In the present example, a suspension comprising Colletotrichum destructivum and a peptide to be tested was dropped on a plant leaf, and lesions were then observed by visual inspection to evaluate the antimicrobial activity of the tested peptide. First, the pores of Colletotrichum destructivum were suspended in water to result in a spore concentration of 5×10^5 spores/ml, so as to prepare a water suspension of spores. Subsequently, peptides to be tested (TsORF18 (full length), TsORF18-40 a.a., and TsORF18-2) were each added to the water suspension of spores, so that the final concentration of the peptides to be tested became 0 μM, 1 μM, 10 μM or 100 μM. Thereafter, 10 μl each of the water suspension of spores containing the peptide to be tested was dropped on the front side and the back side of the leaf of Chinese cabbage (variety name: “Kigokoro 85”). In this condition, incubation was carried out at 25° C. for 4 days. Thereafter, the front and back sides of the leaf were observed by visual inspection.

[3] = test system: plant pathogenic filamentous fungi; assay type: cell-based; settings: summary of Table 3
[4] = test system: Botrytis cinerea; assay type: cell-based; settings: 25° C., 1 day or 2 days
[5] = test system: Botrytis cinerea; assay: Botrytis cinerea leaf inoculation test (tomato leaf); assay type: in vivo; settings: peptide 100 μM; tomato leaf, 25° C., 2 days, lesions by visual inspection
Method: In the present example, a suspension comprising Botrytis cinerea and a peptide to be tested was dropped on a plant leaf, and lesions were then observed by visual inspection to evaluate the antimicrobial activity of the tested peptide. First, the pores of Botrytis cinerea were suspended in a potato dextrose broth (PDB) to result in a spore concentration of 5×10^5 spores/ml, so as to prepare a PDB suspension spore solution. Subsequently, a peptide to be tested (TsORF18-2) was added to the PDB suspension spore solution, so that the final concentration of the peptide to be tested became 0 μM, 1 μM, 10 μM or 100 μM. It is to be noted that, as peptides to be tested, TsORF18 (full length) and TsORF18-40 a.a. were also used in the same manner as that of TsORF18-2. TsORF18 (full length) was dissolved in DMSO and was then used. On the other hand, TsORF18-2 and TsORF18-40 a.a were each dissolved in Milli-Q water and were then used. Thereafter, 10 μl each of the PDB suspension spore solution containing the peptide to be tested was dropped on the front side and the back side of the leaf of tomato (variety name: “Ponte Rosa”). In this condition, incubation was carried out at 25° C. for 2 days. Thereafter, the front and back sides of the leaf were observed by visual inspection.

[6] = test system: Colletotrichum destructivum; assay type: cell-based; settings: 25° C., 1 day or 2 days
[7] = test system: Fusarium oxysporum; assay type: cell-based
[8] = test system: Colletotrichum orbiculare; assay type: cell-based; settings: 25° C., 1 day or 2 days

Substance | Plate antimicrobial activity test Pyricularia oryzae (level) ([1]; peptide 1 μM) | Plate antimicrobial activity test Pyricularia oryzae (level) ([1]; peptide 10 μM) | Plate antimicrobial activity test Pyricularia oryzae (level) ([1]; peptide 100 μM) | Leaf inoculation test Chinese cabbage/Colletotrichum destructivum ([2]; peptide 1 μM) | Leaf inoculation test Chinese cabbage/Colletotrichum destructivum ([2]; peptide 10 μM) | Leaf inoculation test Chinese cabbage/Colletotrichum destructivum ([2]; peptide 100 μM) | germination inhibitory activity against plant pathogenic filamentous fungi (in words) [3] | Plate antimicrobial activity test Botrytis cinerea (level) ([4]; peptide 1 μM) | Plate antimicrobial activity test Botrytis cinerea (level) ([4]; peptide 10 μM) | Plate antimicrobial activity test Botrytis cinerea (level) ([4]; peptide 100 μM) | Leaf inoculation test Tomato/Botrytis cinerea [5] | Plate antimicrobial activity test Colletotrichum destructivum (level) ([6]; peptide 1 μM) | Plate antimicrobial activity test Colletotrichum destructivum (level) ([6]; peptide 10 μM) | Plate antimicrobial activity test Colletotrichum destructivum (level) ([6]; peptide 100 μM) | Plate antimicrobial activity test Fusarium oxysporum (level) [7] | Plate antimicrobial activity test Collectotrichum orbiculare (level) ([8]; peptide 1 μM) | Plate antimicrobial activity test Collectotrichum orbiculare (level) ([8]; peptide 10 μM) | Plate antimicrobial activity test Collectotrichum orbiculare (level) ([8]; peptide 100 μM)
RKFWRIWK (listed as Solanum lycopersicum) [TsORF18-2-8aa-12] | 0 | 0 | 0 | Δ | ∘ | ∘ | extremely excellent germination inhibitory activity | 0 | 1 | 3 | ∘ | 0 | 0 | 3 | 3 and 2 and 0 | 0 | 0 | 3
KFWRI (listed as Solanum lycopersicum) [TsORF18-2-5aa-13] | 0 | 0 | 1 |  | ∘ | ∘ | extremely excellent germination inhibitory activity | 0 | 0 | 3 |  | 0 | 0 | 3 | 3 and 0 | 0 | 0 | 3
WRIWK (listed as Solanum lycopersicum) [TsORF18-2-5aa-15] | 0 | 0 | 0 |  |  |  | extremely excellent germination inhibitory activity | 0 | 0 | 3 |  | 0 | 0 | 3 | 2 and 0 | 0 | 0 | 2
RKFWR (listed as Solanum lycopersicum) [TsORF18-2-5aa-12] | 0 | 0 | 0 |  | ∘ | ∘ | extremely excellent germination inhibitory activity | 0 | 0 | 3 |  | 0 | 0 | 3 | 3 and 0 | 0 | 0 | 2
FWRIWKGK (listed as Solanum lycopersicum) [TsORF18-2-8aa-14] | 0 | 0 | 0 | Δ | ∘ | ∘ | extremely excellent germination inhibitory activity | 0 | 0 | 3 |  | 0 | 0 | 3 | 3 and 0 | 0 | 0 | 3
WRIWKGKT (listed as Solanum lycopersicum) [TsORF18-2-8aa-15] | 0 | 0 | 0 |  |  |  | extremely excellent germination inhibitory activity | 0 | 0 | 3 |  | 0 | 0 | 3 | 3 and 0 | 0 | 0 | 3
RTRKFWRI (listed as Solanum lycopersicum) [TsORF18-2-8aa-10] | 0 | 0 | 1 |  | ∘ | ∘ | extremely excellent germination inhibitory activity | 0 | 0 | 3 |  | 0 | 0 | 3 | 3 and 1 and 0 | 0 | 0 | 3
ERTRKFWR (listed as Solanum lycopersicum) [TsORF18-2-8aa-9] | 0 | 0 | 1 |  |  |  | extremely excellent germination inhibitory activity | 0 | 0 | 3 |  | 0 | 0 | 0 | 3 and 0 | 0 | 0 | 1
